Data: paper PMC6710338, “Turning a Collagenesis-Inducing Peptide Into a Potent Antibacterial and Antibiofilm Agent Against Multidrug-Resistant Gram-Negative Bacteria” (Frontiers in Microbiology, 2019)
Converted amounts (≈) assume the structure as drawn. Where two headings read alike, the source gives them in different places. Peptide text beside a SMILES is read from it.

Key:
[1] = system: MDR K. pneumoniae isolates (KP004, KP007, KP010); assay: Inhibition of biofilm formation, crystal violet assay; type: cell-based, Klebsiella pneumoniae; conditions: in TSB
Protocol: The ability of peptide 3.1-PP4 to inhibit the biofilm formation by three P. aeruginosa isolates (PA002, PA004, Pa3) and by three K. pneumoniae isolates (KP004, KP007 and KP010) was assessed at concentrations equal to the MIC, 1/2 × MIC and 1/4 × MIC in tryptic soy broth – (TSB – Liofilchem s.r.l., Italy) using the crystal violet assay as reported by [Gomes et al. (2014)]. Two independent experiments were performed in triplicate.
Some of the MDR isolates of P. aeruginosa and K. pneumoniae were randomly selected to form biofilms in the absence (controls) and presence (at MIC, 1/2 × MIC and 1/4 × MIC) of the peptide 3.1-PP4. In this assay, the test compounds were used at sub-inhibitory concentrations, since if they had been present at the MIC or higher concentrations, bacteria would be killed before starting to produce the biofilms.
FIGURE 1 Biofilm biomass quantitation of biofilms formed in the presence of peptide 3.1-PP4. Biofilms of three MDR P. aeruginosa (PA002, Pa3, and PA004) and of three MDR K. pneumoniae (KP004, KP007, and KP010) were formed in the presence of the peptide at three different concentrations, MIC, 1/2 × MIC, and 1/4 × MIC. Control biofilms were grown in absence of the peptide. Two independent experiments were performed in triplicate. Error bars represent SD. […]

[2] = system: preformed biofilm of MDR P. aeruginosa PA004; assay: Biofilm metabolic activity (MTT); type: cell-based, Pseudomonas aeruginosa; conditions: isolate PA004, 24 h preformed biofilm, 20 × MIC, 24 h at 37°C, absorbance 570 nm
Protocol: The respective control biofilms were equally formed but in absence of the peptide (only TSB medium was used). Afterward, the bacterial metabolic activity of biofilms was quantified after adding 3-(4,5-dimethylthiazole-2-yl)-2,5-diphenyl tetrazolium bromide (MTT, 0.5 mg/mL – Sigma-Aldrich, St. Louis, MO, United States) for 3 h at 37°C in the dark. DMSO was used to dissolve the formazan crystals formed and the absorbance at 570 nm was measured. Two independent experiments were performed in four replicates.
The influence of the peptide on the metabolic activity of preformed biofilms of one P. aeruginosa (PA004) and three K. pneumoniae (KP004, KP007, and KP010) isolates was also assessed, through a standard MTT assay.

[3] = system: MDR clinical isolates of K. pneumoniae (KP004, KP007, KP010); type: cell-based, Klebsiella pneumoniae; conditions: for MIC: MHB2
Protocol: (§1) The minimum inhibitory concentration (MIC) of synthetic peptides was determined using the broth microdilution method in cation-adjusted Mueller-Hinton broth (MHB2 – Sigma-Aldrich, St. Louis, MO, United States), according to the recommendations of the Clinical and Laboratory Standards Institute ([CLSI, 2012]), against four reference strains, namely, P. aeruginosa ATCC 27853, E. coli ATCC 25922, S. aureus ATCC 25923 and Enterococcus faecalis ATCC 29212. MIC values of peptide 3.1-PP4 were also determined against MDR clinical isolates of P. aeruginosa (PA002, PA004, Pa3, Pa4), E. coli (Ec1, Ec2, EC001, EC002, EC003) and K. pneumoniae (KP004, KP007, KP010). The peptides were tested in the concentration range of 1–1024 μg/mL. The minimum bactericidal concentration (MBC) was determined as previously reported ([Bessa et al., 2018]).
In view of the above results, peptide conjugate 3.1-PP4 was selected for further investigation of its activity against MDR isolates of three Gram-negative bacterial species, namely, P. aeruginosa (four isolates), E. coli (five isolates), and K. pneumoniae (four isolates), whose antimicrobial resistance patterns are provided in the Supplementary Table S1. MDR isolates of K. pneumoniae were included in this analysis given (i) the high prevalence of K. pneumoniae in HAI ([Zheng et al., 2017]), (ii) that K. pneumoniae isolates used are carbanepem-resistant strains of an Enterobacteriaceae species, meaning that they are class 1 priority pathogens for the research and development of new antibiotics according to the WHO ([WHO, 2017]), and (iii) K. pneumoniae bacteria are usually better biofilm producers than the other Enterobacteriaceae species used, E. coli ([Reisner et al., 2006]). MIC values obtained are shown in Table 3, and confirm peptide’s 3.1-PP4 potent action against Gram-negative bacteria, including MDR isolates, with a selectivity index (SI), i.e., ratio of IC50 values for mammalian vs. bacterial cells, ranging from ca. 9–69. In fact, for P. aeruginosa and E. coli, MIC against MDR isolates were in the same range, or below, of those previously found for ATCC reference strains (Table 2). For K. pneumoniae, MIC values ranged between 1 and 4 μM, which is remarkable.

[4] = system: E. faecalis ATCC 29212; assay: MIC, broth microdilution (CLSI), ATCC reference strain; type: cell-based, Enterococcus faecalis
Protocol: as §1, with “2018]). According to CLSI guidelines for antimicrobial susceptibility testing, MIC values were determined for all peptides against ATCC reference strains of two Gram-positive (S. aureus ATCC 25923 and E. faecalis ATCC 29212), and two Gram-negative (P. aeruginosa ATCC 27853 and E. coli ATCC 25922) bacterial species, and are shown in Table 2.” for “2018]).”

## CC(C)C[C@H](NC(=O)[C@H](Cc1c[nH]c2ccccc12)NC(=O)[C@H](CCCCN)NC(=O)[C@H](CC(C)C)NC(=O)[C@H](CC(C)C)NC(=O)[C@H](CCCCN)NC(=O)[C@@H](N)CCCCN)C(=O)N[C@@H](CC(C)C)C(=O)N[C@@H](CCCCN)C(=O)N[C@@H](CC(C)C)C(=O)N[C@@H](CC(C)C)C(=O)N[C@@H](CCCCN)C(=O)N[C@H](C(=O)N[C@H](C(=O)N[C@@H](CCCCN)C(=O)N[C@@H](CO)C(N)=O)[C@@H](C)O)[C@@H](C)O [Peptide 3.1-PP4] (H-KKLLKWLLKLLKTTKS-NH2; N-terminus assumed)
[1]; peptide at MIC, K. pneumoniae isolates
  biofilm formation (crystal violet absorbance at 595 nm): no biofilm was actually produced
[1]; peptide at sub-inhibitory concentrations (1/2 and 1/4 of the MIC), vs control biofilm
  biofilm formation (crystal violet absorbance at 595 nm): able to reduce the biofilm formed
[2]
  % reduction of metabolic activity in peptide-treated biofilms: 8.3%
[3]; MDR K. pneumoniae isolate KP004
  MIC: 4 mg/L (≈ 2.06 µM)
[3]; MDR K. pneumoniae isolate KP007
  MIC: 8 mg/L (≈ 4.12 µM)
[3]; MDR K. pneumoniae isolate KP010
  MIC: 2 mg/L (≈ 1.03 µM)
[3]; MDR clinical isolates of (KP004, KP007, KP010)
  MIC values for K. pneumoniae: 1 to 4 µM
[4]; ATCC 29212
  MIC: 33 µM
[4]; E. faecalis ATCC 29212, broth microdilution in MHB2, CLSI, range tested 1–1024 μg/mL
  MIC: 64 mg/L
